The supplement of paper PMC11208160

Assay: recombinant UMI read abundance after kanamycin selection (control-corrected) (log10(CPM+1)); higher = more efficient recombination; extreme values may be limits of the assay; sequences stand for … in AGTGCAGAGAAAATCGGCCAGTTTTCTCTGCCTGCAGTCCGCATGCCGTGGGACCCCTTGGGTTCTAACCTGTTGCCTAGATTTATGCAGCGGACTGCCTTTCTCCCAAAGTGATAAACCGG…AGGTTGGTTTCACT; site = the 11-nt donor
Method in brief: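 After plating on IPTG (0.07 mM) plus kanamycin, or unselected, in two replicates, recombinant UMIs were PCR-amplified across the donor–target junction and sequenced. The cells were Escherichia coli co-electroporated with a UMI-tagged donor and donor-binding-loop pair library and a target plasmid with a fixed target and T7-inducible IS621 bridge recombinase. Values are log10(CPM+1), with CPM averaged over replicates and scaled by control-derived factors.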
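Note: IS621 bridge recombinase in Escherichia coli cells against a fixed T5 target plasmid.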

Sequence	recombinant UMI read abundance (log10)
TGCCCTGCATGGACCGGTTTTCCCGGTAATCCGTATTTGTT (site TGCCCTGCTAA)	0.0362
TGCCTATCATGGACCGGTTTTCCCGGTAATCCGTATTTGTT (site TGCCTATCTAA)	0.0105
TGCCTCGCATGGACCGGTTTTCCCGGTAATCCGTATTTGGG (site TGCCTCGCTCC)	0.0166
TGCGAGCCATGGACCGGTTTTCCCGGTAATCCGTATTTGAA (site TGCGAGCCTTT)	0.00414
TGCGAGGCATGGACCGGTTTTCCCGGTAATCCGTATTTGTA (site TGCGAGGCTTA)	1.41
TGCGCTTCATGGACCGGTTTTCCCGGTAATCCGTATTTGGG (site TGCGCTTCTCC)	0.0195
TGCGGACCATGGACCGGTTTTCCCGGTAATCCGTATTTGCA (site TGCGGACCTTG)	0
TGCGGACCATGGACCGGTTTTCCCGGTAATCCGTATTTGCT (site TGCGGACCTAG)	0.00621
TGCGTGACATGGACCGGTTTTCCCGGTAATCCGTATTTGAT (site TGCGTGACTAT)	1.94
TGCGTGTCATGGACCGGTTTTCCCGGTAATCCGTATTTGCC (site TGCGTGTCTGG)	2.33
TGCTATACATGGACCGGTTTTCCCGGTAATCCGTATTTGAT (site TGCTATACTAT)	0.285
TGCTCAGCATGGACCGGTTTTCCCGGTAATCCGTATTTGTT (site TGCTCAGCTAA)	0
TGCTCCCCATGGACCGGTTTTCCCGGTAATCCGTATTTGTA (site TGATCCCCTTA)	0.0151
TGCTCCCCATGGACCGGTTTTCCCGGTAATCCGTATTTGTA (site TGCTCCCCTTA)	0.00702
TGCTCCCCATGGACCGGTTTTCCCGGTAATCCGTATTTGTA (site TGGTCCCCTTA)	0.00608
TGCTCCCCATGGACCGGTTTTCCCGGTAATCCGTATTTGTA (site TGTTCCCCTTA)	0.00224

Sequence	recombinant UMI read abundance (log10)
TGCTCCGCATGGACCGGTTTTCCCGGTAATCCGTATTTGTG (site TGCTCCGCTCA)	0.265
TGCTGCACATGGACCGGTTTTCCCGGTAATCCGTATTTGAA (site TGCTGCACTTT)	0.0328
TGCTGCTCATGGACCGGTTTTCCCGGTAATCCGTATTTGGT (site TGCTGCTCTAC)	0.182
TGCTTAGCATGGACCGGTTTTCCCGGTAATCCGTATTTGTC (site TGCTTAGCTGA)	0
TGCTTGACATGGACCGGTTTTCCCGGTAATCCGTATTTGCT (site TACTTGACTAG)	1.51
TGCTTGACATGGACCGGTTTTCCCGGTAATCCGTATTTGCT (site TCCTTGACTAG)	0.0059
TGCTTGACATGGACCGGTTTTCCCGGTAATCCGTATTTGCT (site TGCTTGACTAG)	0.922
TGCTTGACATGGACCGGTTTTCCCGGTAATCCGTATTTGCT (site TTCTTGACTAG)	0.00367
TGCTTGACATGGACCGGTTTTCCCGGTAATCCGTATTTGGA (site TGCTTGACTTC)	0.355
TGCTTGGCATGGACCGGTTTTCCCGGTAATCCGTATTTGAA (site TGCTTGGCTTT)	0.485
TGCTTGGCATGGACCGGTTTTCCCGGTAATCCGTATTTGGT (site TGCTAGGCTAC)	0.011
TGCTTGGCATGGACCGGTTTTCCCGGTAATCCGTATTTGGT (site TGCTCGGCTAC)	0
TGCTTGGCATGGACCGGTTTTCCCGGTAATCCGTATTTGGT (site TGCTGGGCTAC)	0.155
TGCTTGGCATGGACCGGTTTTCCCGGTAATCCGTATTTGGT (site TGCTTGGCTAC)	0.0115
TGGAAAACATGGACCGGTTTTCCCGGTAATCCGTATTTGCA (site AGGAAGACTTG)	0.218
TGGAAAACATGGACCGGTTTTCCCGGTAATCCGTATTTGCA (site TGGAAAACTTG)	2.24
